Results as given in patent publication US6774123B1, “Methods and compositions for inactivating viruses” (priority 1998, dated 2004).

How the values were obtained:
Porcine Parvovirus (PPV) = assay: Inactivation of porcine parvovirus (PPV), TCID50 titer on PT-1 cells; type: cell-based; conditions: dropped from 7.1 logs, 3 hours, room temperature, dimer 0.1%, detergent = 1% Tween 80, 0.3% TNBP (FIG. 3)
Description: PPV is a non-enveloped virus; it is known to be inactivated with ethyleneimine dimer. The ability of ethyleneimine dimer to inactivate PPV in the presence of a solvent-detergent mixture was determined as follows.
A detergent stock solution (1% Tween 80, 0.3% TNBP in 0.1 M MOPS, 50 mM NaCl, pH 7.0) was prepared. A 5% dimer stock solution was prepared with 250 μl of 0.1 M MOPS, NaCl 50 mM, pH 7.0, and 12.5 μl dimer (ethyleneimine dimer, Dalton Chemical Laboratories, Inc., lot number LB-4-69A-03319). In addition, a quenching solution with a sodium thiosulphate concentration of 0.1M in 0.1 M MOPS, pH 7.0, was prepared.
(a) 9 ml 0.1 M MOPS, 50 mM NaCl, pH 7.0 was combined with 200 μl dimer stock solution. 1.0 ml PPV (PPV stock #1 filtered through 0.22μ filter) was added. The concentration of dimer in the resulting solution was 0.1%. The mixture was incubated at room temperature for a given period of time (0-3 hours). After the given time period, 1.85 ml of the solution was removed, and 0.15 ml quenching solution was added. Quenching occurred over a period of 30 minutes at room temperature. The concentration of sodium thiosulphate in the final solution was […].
(b) 9 ml detergent stock solution was combined with 1.0 ml PPV. The mixture was incubated for 0-3 hours at room temperature. A 2 ml aliquot was removed at each time point for assay. […]

bacteriophage MS2 = assay: Kinetics of bacteriophage MS2 infectivity inactivation; type: cell-based; conditions: 1 mM trimer, 23° C., pH 7.13, after 30 minutes of incubation (FIG. 1)
Description: Ethyleneimine trimer is known to inactivate the infectivity of bacteriophage MS2. The ability of the trimer to inactivate the infectivity of MS2 in the presence of TNBP and Tween 80 was determined as follows.
A stock of bacteriophage MS2 (ATCC number 15597-B1) was prepared according to conventional procedures (D. L. Rogerson and G. Rushizky, Analytical Biochemistry 67: 675-678 (1975)). Purification was performed by sedimentation of bacteriophage in the presence of 6% polyethylene glycol (PEG 8000, USB) as described in K. Yamamoto and B. Alberts, Virology 40: 734-744 (1970).
Purified phage were suspended in 0.15 M NaCl solution (final bacteriophage stock titer was 5×10^13 pfu/ml) and stored at 4° C. The infectivity (titer) of phage suspension was determined by conventional bilayer technique on LB agar with the F^+ strain of Escherichia coli C-3000 (ATCC number 15597).
Ethyleneimine trimer was prepared as described above. […]
Aliquots of the reaction mixture incubated at 23° C. were taken at five defined time intervals. MS2 infectivity inactivation (log S0/St, where S0 and St are the infectivity (titer) of the suspension before and t min after the start of inactivation) was determined at these five points.

SMILES | titer of the virus (TCID50) after treatment (Porcine Parvovirus (PPV)) | MS2 infectivity inactivation (log S0/St), trimer alone compared with trimer plus solvent-detergent (bacteriophage MS2)
NCCN1CC1 [dimer, ethyleneimine dimer] | 3.2 logs | 
NCCNCCN1CC1 [trimer, ethyleneimine trimer] |  | essentially the same infectivity inactivation
